The numbers were not newly measured in US20010041741A1, “Composition for improvement of cellular nutrition and mitochondrial energetics” (priority 1997, published 2001), which cites them from elsewhere.

Where two headings read alike, the source gives them in different places.

For series [1], the system named is animals and patients with heart failure or myocardial ischemia. The note with it: L-carnitine 3-5 grams, proprionyl-1-carnitine 1.5-3.0 grams.
Assay in series [2]: not given
The source holds these as a separate data set.

For series [3], the system named is patients with heart failure. The note with it: creatine supplement.
Series [4] relates to patients suffering from congestive heart failure. The note with it: oral dose of 1 gram three times per day.
Series [5] deals with in-patients with heart failure and on long-term furosemide therapy.

With `C[N+](C)(C)C[C@H](O)CC(=O)[O-]` [L-carnitine, 3-hydroxy-4-N-trimethylaminobutyric acid], for the setting “following oral administration”, the “Time of peak plasma concentration” value was 3 h and the “T½ of plasma decay” value was 3 to 4 h. The “Tolerance / adverse effects” value (in vivo) was “well tolerated and no adverse effects have been described”. In addition, for the setting “oral”, the Bioavailability is 5-20%. In series [1], the Hemodynamics result is listed as “significant hemodynamic improvement”.

Regarding `COC1=C(OC)C(=O)C(C/C=C(\C)CC/C=C(\C)CC/C=C(\C)CC/C=C(\C)CC/C=C(\C)CC/C=C(\C)CC/C=C(\C)CC/C=C(\C)CC/C=C(\C)CCC=C(C)C)=C(C)C1=O` [Ubiquinone, 2,3 dimethoxy-5 methyl-6-decaprenyl benzoquinone], the “Increase of mean steady state level in plasma” value in series [2] (after 4 days of dosing at 100 mg 3 times daily) is given as 4-7 fold. For the same compound, the “Liver enzymes (LDH, SGOT)” value in series [2] (doses of 300 mg/day) was “asymptomatic elevations”. Further, in series [2] (in vivo), the Side effects entry is “virtually absent”. In addition, the “T½ of plasma decay” value in series [2] (oral) was 34 h. The “Time of plasma level peak” value in series [2] (oral absorption) is 5 to 10 h. The “Share of an oral dose taken up by the myocardium” value in series [2] (oral, large hepatic first pass effect) is on record as 2-5%.

For the compound `CN(CC(=O)O)C(=N)N` [creatine, Creatine], in series [3], the Cardiac ejection fraction entry is on record as “did not increase”; the “Skeletal muscle creatine phosphate, muscle strength and endurance” value is given as “significantly increased”.

Consider `CCC(=O)O[C@H](CC(=O)[O-])C[N+](C)(C)C` [proprionyl-1-carnitine, Proprionyl-1-carnitine], for which the Hemodynamics entry in series [1] is “significant hemodynamic improvement”.

On to `NCCS(=O)(=O)O` [taurine, 2-aminoethanesulfonic acid], for which, in series [4], the “Hemodynamic state and functional capacity” value was “improve both hemodynamic state and functional capacity”; the Tolerance entry is reported as “extremely well tolerated”.

Take `Cc1ncc(C[n+]2csc(CCO)c2C)c(N)n1` [thiamine, Thiamine]: the “Mean left ventricular ejection fraction” value in series [5] (after one week, 200 mg intravenous thiamine) was “increased significantly”. In series [5] (after six weeks of oral thiamine supplementation, 200 mg/day), the “Increase of left ventricular ejection fraction” value is 22%. For the same compound, the “Diuresis, excretion of sodium and water” value in series [5] (within two days of thiamine supplementation, versus placebo) was “significant diuresis with increased excretion of sodium and water”.
